A short description of series [1]: Test for solubility in solvent. It counts as physicochemical. The conditions noted are these: for Solubility: methanol, room temperature. As to the method:
Each of cyanine dyes as shown below in Table 2 was dissolved in methanol and the solubility was determined at room temperature with the results indicated below in Table 2.

A short description of series [2]: Absorption maximum (λmax) and molar absorptivity (ε) in solution. It counts as physicochemical.

On to `CCOc1ccc2c(c1)C(C)(C)C(=CC=CC=CC=CC1=[N+](C)c3ccc(OCC)cc3C1(C)C)N2C` [Compound A, reference compound], for which, in series [1], the “solubility in solvents (in words)” value was “does not exhibit good solubility in solvents” and the Solubility entry is recorded as “up to 10 g/1”.

As for `CCOc1ccc2c(c1)C(C)(C)C(=CC=CC=CC1=[N+](C)c3ccc(OCC)cc3C1(C)C)N2C` [Compound B, reference compound], in series [1], the “solubility in solvents (in words)” value was “not satisfactory in solubility in solvents” and the Solubility entry was “up to 10 g/1”.

Turning to `CCN1C(=CC=CC=CC2=[N+](CC)c3c(OC)cc(OC)cc3C2(C)C)C(C)(C)c2cc(OC)cc(OC)c21` [Preparation Example 1], the Solubility in series [1] came out at 30 g/1.

Consider `CCOc1cc(OCC)c2c(c1)C(C)(C)C(=CC=CC=CC1=[N+](CC)c3c(OCC)cc(OCC)cc3C1(C)C)N2CC` [Preparation Example 2], for which, in series [2] (dichloromethane), the ε is given as 1.72×10^5 cm^- and the λmax was 698 nm.

Turning to `COCN1C(=CC=CC=CC2=[N+](COC)c3cc(OC)c(OC)cc3C2(C)C)C(C)(C)c2cc(OC)c(OC)cc21` [Preparation Example 3], the Solubility result in series [1] is listed as “at least 30 g/1”. In series [2] (diacetone alcohol), this compound had a ε of 160000 cm⁻¹ and a λmax of 702 nm.

On to `COc1cc(C)c2c(c1)C(C)(C)C(=CC=CC=CC1=[N+](CCO)c3c(C)cc(OC)cc3C1(C)C)N2CCO` [Preparation Example 4], for which, in series [2] (diacetone alcohol), the ε is 184000 cm⁻¹ and the λmax is 679 nm.

In series [2] (diacetone alcohol), `COCCN1C(=CC=CC=CC2=[N+](CCOC)c3c(C)cc(OC)cc3C2(C)C)C(C)(C)c2cc(OC)cc(C)c21` [Preparation Example 5] gave a ε of 185000 cm⁻¹ and a λmax of 679 nm.

Turning to `CCCN1C(=CC=CC=CC2=[N+](CCC)c3cc(C)c(OC)cc3C2(C)C)C(C)(C)c2cc(OC)c(C)cc21` [Preparation Example 6], in series [1], the Solubility result was “at least 30 g/1”. For the same compound, in series [2] (diacetone alcohol), the ε turned out to be 174000 cm⁻¹ and the λmax was determined as 683 nm.

Regarding `CCOc1cc(C)c2c(c1)C(C)(C)C(=CC=CC=CC1=[N+](CC)c3c(C)cc(OCC)cc3C1(C)C)N2CC` [Preparation Example 7], in series [2] (dichloroethane), the ε is recorded as 1.75×10^5 cm^- and the λmax is on record as 681 nm.

The compound `CCCOc1cc(C)c2c(c1)C(C)(C)C(=CC=CC=CC1=[N+](CC)c3c(C)cc(OCCC)cc3C1(C)C)N2CC` [Preparation Example 8] returned a λmax in series [2] (diacetone alcohol) of 683 nm.

In series [2] (diacetone alcohol), `CCc1cc(OC)cc2c1N(CC)C(=CC=CC=CC1=[N+](CC)c3c(CC)cc(OC)cc3C1(C)C)C2(C)C` [Preparation Example 9] had a ε of 182000 cm⁻¹ and a λmax of 681 nm.

As to `COc1cc(C(C)C)c2c(c1)C(C)(C)C(=CC=CC=CC1=[N+](C)c3c(C(C)C)cc(OC)cc3C1(C)C)N2C` [Preparation Example 10], in series [2] (diacetone alcohol), the ε stood at 162000 cm⁻¹ and the λmax is 681 nm.

Regarding `CCCCN1C(=CC=CC=CC2=[N+](CCCC)c3cc(OC)c(OC)cc3C2(C)C)C(C)(C)c2cc(OC)c(OC)cc21` [Preparation Example 11], in series [1], the Solubility result is “at least 30 g/1”. Also, in series [2] (diacetone alcohol), the ε stood at 162000 cm⁻¹ and the λmax came out at 703 nm.

In series [2] (dichloromethane), `CCCCN1C(=CC=CC=CC2=[N+](CCCC)c3cc(OC)c(OC)cc3C2(C)C)C(C)(C)c2cc(OC)c(OC)cc21` [Preparation Example 12] gave a ε of 161000 cm⁻¹ and a λmax of 699 nm.

As to `COc1cc(OC)c2c(c1)C(C)(C)C(=CC=CC=CC1=[N+](CCOC(C)=O)c3c(OC)cc(OC)cc3C1(C)C)N2CCOC(C)=O` [Preparation Example 13], in series [2] (diacetone alcohol), the ε worked out at 175000 cm⁻¹ and the λmax was determined as 693 nm.

As for `COCCN1C(=CC=CC=CC2=[N+](CCOC)c3c(OC)cc(OC)cc3C2(C)C)C(C)(C)c2cc(OC)cc(OC)c21` [Preparation Example 14], the Solubility entry in series [1] was “at least 30 g/1”. Moreover, in series [2] (diacetone alcohol), the ε was found to be 180000 cm⁻¹ and the λmax was found to be 695 nm.

(Values after US5008401A, “Cyanine compounds” (Asahi Chemical Co., Ltd., priority 1990, dated 1991).)
